From patent US20050113256A1, “Methods of reducing the nicotine content of tobacco plants and tobacco plants obtained thereby” (priority 2003, published 2005)

Legend:
[1] = tested on: parasitoids (wasps) (Cotesia glomerate); test: Attraction of parasitoids (wasps) to cabbage plants treated with β-glucosidase; assay type: in vivo; conditions: amount of β-glucosidase in 25 μl
From the text: We have discovered that generic defense mechanisms are elicited by herbivores such as caterpillars. In this example, a caterpillar (Pieris brassicae) attacked a cabbage plant releasing a defensive mixture of volatiles which attract parasitic wasps (Cotesia glomerate) which then attack and destroy the caterpillars. The caterpillar gut regurgitant contains enzymatic β-glucosidase which elicits the mixture of volatiles referred to above. Commercial β-glucosidase performs in a similar manner.
Cabbage (eight weeks old) and P. Brassicae (caterpillar) and parasitoids (wasps) were reared according to the method of Steinberg S. et al., Entomol. Exp. Appl 63 163-175 (1992). […] Ion chromatograms identified […], 1-hexanol, E-2-hexene 1-YL acetate as major components of the volatiles released by the cabbage plants. This experiment illustrates another specific example (compare to H. zea) of evolutionary arms race wherein an elicitor-antagonist biological system focuses on a defensive enzyme reaction.

[2] = tested on: tobacco leaves (Nicotiana tabacum); test: Treatment of individual tobacco leaves with test solutions, nicotine reduction; assay type: in vivo; conditions: incubated for about 3 days
[3] = tested on: transgenic tobacco plant leaves; conditions: transgenic tobacco leaves starting at 0.05 mg per gram; one GOX-leaf bruising treatment
From the text: One group of the tobacco plants was exposed to H. zea neonates for a three day period during the growing season. A second group of the tobacco plants was exposed to H. zea neonates multiple times each for a three-day period during the growing season. A third group of tobacco plants was isolated from H. zea neonates for establishing a control. The leaves were harvested at the end of the growing season and the caterpillars were removed. The tobacco leaves were air dried and processed. Each of the dried tobacco leaves were treated and extracted with 10 ml of 25 mM sodium phosphate buffer at 30° C. for about 24 hours at constant agitation.

| Substance | attraction of parasitoids (wasps) [1] | Reduction of Nicotine [2] [mg/g] | nicotine content after treatment [3] |
| --- | --- | --- | --- |
| β-glucosidase | clearly resulted in the attraction of parasitoids |  |  |
| glucose oxidase [Active GOX] |  | 0.60 to 0.70 | 0.01 mg of nicotine/per gram |
